In patent US4292249A, “25-Hydroxy-24-oxocholestane derivatives and preparation thereof” (priority 1979, dated 1981):

Legend:
[1] = tested on: calcium absorption at the intestinal tube; test: Effect to promote calcium absorption from the intestinal tract (everted gut sac method); format: in vivo, Wistar male rats; details: vitamin D-deficient rats, 250 ng/head intravenously, measured 4, 8, 24 and 48 hour later
Protocol: They were killed 4 hour, 8 hour, 24 hour and 48 hour later, and calcium absorption at the intestinal tube was measured by the everted gut sac method [see Martin, D. L. and Deluca, H. F., Amer, J. Physiol.

[2] = biological target: T1, 1α,25-dihydroxy cholecalciferol-receptor in the chick's intestinal tube (Gallus gallus, UniProt O42392); test: Combination (binding) with the 1α,25-dihydroxy cholecalciferol-receptor, competitive displacement
T1 construct: 1α,25-dihydroxy cholecalciferol-receptor in the chick's intestinal tube; from tissue; host or cells: chick intestine
T1 sequence (O42392 1-451): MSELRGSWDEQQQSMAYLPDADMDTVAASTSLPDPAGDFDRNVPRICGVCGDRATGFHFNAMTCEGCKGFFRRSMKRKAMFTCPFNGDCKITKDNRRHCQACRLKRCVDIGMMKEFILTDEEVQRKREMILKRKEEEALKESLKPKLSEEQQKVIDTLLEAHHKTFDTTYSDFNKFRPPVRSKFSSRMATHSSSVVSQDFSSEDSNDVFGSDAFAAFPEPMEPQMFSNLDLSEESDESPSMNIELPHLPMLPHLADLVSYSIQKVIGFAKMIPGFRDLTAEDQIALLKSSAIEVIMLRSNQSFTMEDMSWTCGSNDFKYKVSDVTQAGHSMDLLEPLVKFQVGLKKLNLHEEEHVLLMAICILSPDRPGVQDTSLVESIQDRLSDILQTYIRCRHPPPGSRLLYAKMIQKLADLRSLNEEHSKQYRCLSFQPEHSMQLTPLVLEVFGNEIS

Structure (SMILES)	time after administration at which the effect on intestinal calcium absorption showed [1]	time for which the effect on intestinal calcium absorption continued [1] [h]	50% Displacement ([2]; chick intestinal receptor) [pg]	Molar ratio ([2]; relative to 1α,25-dihydroxy cholecalciferol = 1)
C=C1CC[C@H](O)C/C1=C/C=C1\CCC[C@]2(C)[C@@H]([C@H](C)CCC(=O)C(C)(C)O)CC[C@@H]12 [25-hydroxy-24-oxo-cholecalciferol, 25-hydroxy-24-oxocholecalciferol]	about 4 hours	44		
C=C1/C(=C\C=C2/CCC[C@]3(C)[C@@H]([C@H](C)CCC(=O)C(C)(C)O)CC[C@@H]23)C[C@@H](O)C[C@@H]1O [1α,25-dihydroxy-24-oxo-cholecarciferol, 1α,25-dihydroxy-24-oxo cholecalciferol]			138	3
